Measured values reported in patent US12704506B2, “Microbial analysis without cell purification” (First Light Diagnostics, Inc., priority 2018, dated 2026).
Like-named read-outs stand apart in the source and are kept apart here.

Tests used:
E. coli BAA-2469 [1] = tested on: E. coli BAA-2469; design: unit not given beside the values; details: E. coli BAA-2469, regardless of the amount of S. aureus ATCC 25923 cells
E. coli BAA-2469 [2] = tested on: E. coli BAA-2469; design: unit not given beside the values
From the text: Comparison Method: Results for the novel assay method described here were compared to broth microdilutions (BMD) performed according the […] 2018.

P. aeruginosa = tested on: P. aeruginosa; design: key: previously determined antibiotic resistance (shown with “X”); details: cited from earlier work
K. pneumoniae = tested on: K. pneumoniae; design: key: previously determined antibiotic resistance (shown with “X”); details: cited from earlier work
K. oxytoca = tested on: K. oxytoca; design: key: previously determined antibiotic resistance (shown with “X”); details: cited from earlier work
E. coli = tested on: E. coli; design: key: previously determined antibiotic resistance (shown with “X”); details: cited from earlier work
P. mirabilis = tested on: P. mirabilis; design: key: previously determined antibiotic resistance (shown with “X”); details: cited from earlier work
[3] = tested on: K. pneumonaie strain in clinical urine sample BIUR0084; assay: automated MultiPath AST cartridge on clinical urine, Example 8; assay type: cell-based, K. pneumoniae; details: for sensitive/resistant call by MulitPath: clinical urine BIUR0084, 4 h growth, fold growth value of 2; for growth call at all antibiotic concentrations (MulitPath assay): clinical urine BIUR0084, fold growth value of 2, 4 h

Row | Compound | previously determined antibiotic resistance (P. aeruginosa; P. aeruginosa ATCC27853) | previously determined antibiotic resistance (P. aeruginosa; P. aeruginosa CDC0251) | previously determined antibiotic resistance (P. aeruginosa; P. aeruginosa CDC0253) | previously determined antibiotic resistance (K. pneumoniae; K. pneumoniae ATCC13883) | previously determined antibiotic resistance (K. pneumoniae; K. pneumoniae CDC0016) | previously determined antibiotic resistance (K. pneumoniae; K. pneumoniae CDC0034) | previously determined antibiotic resistance (K. pneumoniae; K. pneumoniae CDC0076) | previously determined antibiotic resistance (K. pneumoniae; K. pneumoniae CDC0117) | previously determined antibiotic resistance (K. pneumoniae; K. pneumoniae CDC0126) | previously determined antibiotic resistance (K. oxytoca; K. oxytoca CDC0028) | previously determined antibiotic resistance (K. oxytoca; K. oxytoca CDC0071) | previously determined antibiotic resistance (K. oxytoca; K. oxytoca CDC0147) | previously determined antibiotic resistance (E. coli; E. coli ATCC25922) | previously determined antibiotic resistance (P. mirabilis; P. mirabilis ATCC7002) | previously determined antibiotic resistance (P. mirabilis; P. mirabilis CDC0029) | previously determined antibiotic resistance (P. mirabilis; P. mirabilis CDC0059) | previously determined antibiotic resistance (P. mirabilis; P. mirabilis CDC0155) | previously determined antibiotic resistance (P. mirabilis; P. mirabilis CDC0156) | previously determined antibiotic resistance (P. mirabilis; P. mirabilis CDC0159) | previously determined antibiotic resistance (K. pneumoniae; K. pneumoniae CDC0010) | further results
1 | O=C1CN(/N=C/c2ccc([N+](=O)[O-])o2)C(=O)N1 [Nitrofurantoin] | – | – | – | – | – | – | – | – | – | – | – | – | – | – | – | – | – | – | – | – | MIC, novel 4-hour AST assay (MultiPath) (E. coli BAA-2469 [1]): 8; MIC, CLSI-like broth microdilution (E. coli BAA-2469 [2]; E. coli BAA-2469, in the absence of S. aureus): 8; MIC, CLSI-like broth microdilution (E. coli BAA-2469 [2]; E. coli BAA-2469, with a 100-fold excess of S. aureus ATCC 25923): 32
2 | O=C(O)c1cn(C2CC2)c2cc(N3CCNCC3)c(F)cc2c1=O [Ciprofloxacin] | X | X | X | X | X | X | X | X | X | X | X | X | X | X | X | X | X | X | X | – | previously determined antibiotic resistance (P. aeruginosa; P. aeruginosa CDC0259): X; previously determined antibiotic resistance (P. aeruginosa; P. aeruginosa CDC0261): X; previously determined antibiotic resistance (P. aeruginosa; P. aeruginosa CDC0262): X; previously determined antibiotic resistance (E. coli; E. coli BAA-2452): X; previously determined antibiotic resistance (E. coli; E. coli BAA-2469): X; previously determined antibiotic resistance (E. coli; E. coli BAA-2471): X; previously determined antibiotic resistance (E. coli; E. coli CDC0017): X; previously determined antibiotic resistance (E. coli; E. coli CDC0019): X
3 | Cc1nnc(SCC2=C(C(=O)O)N3C(=O)[C@@H](NC(=O)Cn4cnnn4)[C@H]3SC2)s1 [Cefazolin] | – | – | – | – | – | – | – | – | – | – | – | – | – | – | – | – | – | – | – | – | sensitive/resistant call by MulitPath [3]: resistant; growth call at all antibiotic concentrations (MulitPath assay) [3]: growth
4 | C[C@@H](O)[C@H]1C(=O)N2C(C(=O)O)=C(S[C@@H]3CN[C@H](C(=O)N(C)C)C3)[C@H](C)[C@H]12 [Meropenem] | – | – | – | X | X | X | X | – | – | X | X | X | X | X | X | X | X | X | X | X | previously determined antibiotic resistance (P. aeruginosa; P. aeruginosa CDC0105): X; previously determined antibiotic resistance (P. aeruginosa; P. aeruginosa CDC0111): X; previously determined antibiotic resistance (P. aeruginosa; P. aeruginosa CDC0232): X; previously determined antibiotic resistance (P. aeruginosa; P. aeruginosa CDC0242): X; previously determined antibiotic resistance (P. aeruginosa; P. aeruginosa CDC0247): X; previously determined antibiotic resistance (K. pneumoniae; K. pneumoniae CDC0043): X; previously determined antibiotic resistance (K. pneumoniae; K. pneumoniae CDC0080): X; previously determined antibiotic resistance (E. coli; E. coli CDC0001): X; previously determined antibiotic resistance (E. coli; E. coli CDC0006): X; previously determined antibiotic resistance (E. coli; E. coli CDC0020): X; previously determined antibiotic resistance (E. coli; E. coli CDC0085): X; previously determined antibiotic resistance (E. coli; E. coli CDC0114): X
5 | CC(C)(O/N=C(\C(=O)N[C@@H]1C(=O)N2C(C(=O)[O-])=C(C[n+]3ccccc3)CS[C@H]12)c1csc(N)n1)C(=O)O [Ceftazidime] | X | X | X | X | X | – | – | – | X | X | X | X | X | X | X | X | X | X | X | X | previously determined antibiotic resistance (P. aeruginosa; P. aeruginosa CDC0105): X; previously determined antibiotic resistance (P. aeruginosa; P. aeruginosa CDC0111): X; previously determined antibiotic resistance (P. aeruginosa; P. aeruginosa CDC0242): X; previously determined antibiotic resistance (K. pneumoniae; K. pneumoniae CDC0041): X; previously determined antibiotic resistance (K. pneumoniae; K. pneumoniae CDC0107): X; previously determined antibiotic resistance (K. pneumoniae; K. pneumoniae CDC0160): X; previously determined antibiotic resistance (E. coli; E. coli CDC0020): X; previously determined antibiotic resistance (E. coli; E. coli CDC0067): X; previously determined antibiotic resistance (E. coli; E. coli CDC0084): X; previously determined antibiotic resistance (E. coli; E. coli CDC0086): X; previously determined antibiotic resistance (E. coli; E. coli CDC0350): X
6 | Trimethoprim/Sulfamethoxazole | – | – | – | X | X | – | – | X | X | X | X | X | X | X | X | X | X | X | X | X | sensitive/resistant call by MulitPath [3]: resistant; growth call at all antibiotic concentrations (MulitPath assay) [3]: growth; previously determined antibiotic resistance (K. pneumoniae; K. pneumoniae CDC0107): X; previously determined antibiotic resistance (E. coli; E. coli BAA-2469): X; previously determined antibiotic resistance (E. coli; E. coli BAA-2471): X; previously determined antibiotic resistance (E. coli; E. coli CDC0017): X; previously determined antibiotic resistance (E. coli; E. coli CDC0019): X; previously determined antibiotic resistance (E. coli; E. coli CDC0084): X
